From PMC5640672, “Molecular mechanism of synergy between the antimicrobial peptides PGLa and magainin 2” (Scientific Reports, 2017)
No end group written: not given here.

Tests used:
[1] = Fluorescence ANTS/DPX vesicle leakage assay in POPC/POPG (3:1); settings: for Leakage synergy in combination with MAG2-E19K / Leakage synergy in combination with MAG2-E19K-amide: POPC/POPG (3:1) vesicles, result in words; for Leakage, mean value: ANTS/DPX, POPC/POPG (3:1) 100 nm vesicles, P/L about 1:160 per peptide, mixtures 1:1, 10 mM HEPES pH 7.5, 155 mM NaCl, 30 °C, 600 s, % of Triton-X-100 leakage, fluorescence, mean of n = 3
Method: The synergy was also investigated by a fluorescence ANTS/DPX leakage assay[24],[27],[30]. As described in the Methods section, leakage from POPC/POPG (3:1) vesicles was measured for 10 minutes after the addition of vesicles to a peptide solution. Leakage is expressed as percentage of the full leakage, which was obtained after addition of detergent. A synergy factor was defined to describe the enhancement of leakage of the mixture compared to the sum of the extent of leakage for each component. […] In general a synergy factor above 2 indicated synergy. […] In the leakage assay, this pore formation can be studied under more controlled conditions. Here we use two lipid compositions for the vesicles, which are mimicking bacterial membranes.
(§1) Leakage of small unilamellar vesicles induced by the peptides was studied using a standard fluorescence assay.
(§2) The appropriate lipids for each experiment were dissolved in CHCl3, together with 0.02 mol-% Rhodamine-PE (Rh-PE). […] This stock suspension was subjected to 10 freeze-thaw cycles and then frozen. Appropriate aliquots of the stock lipid suspension were unfrozen each day and extruded (41 times) through polycarbonate membranes with 100 nm pore size, and stored at room temperature overnight. The fluorophore and quencher outside the vesicles were removed by size exclusion chromatography using spin-columns (Pierce centrifuge column, 2 ml, Life Technologies GmbH, Darmstadt, Germany) filled with Sephacryl 100-HR (2 min, 1500 × g). For elution, a 10 mM HEPES buffer (pH 7.5) was used, containing 155 mM NaCl to balance the osmolarity. After extrusion and removal of the external dye and quencher, the lipid concentration usually decreases. Therefore, before each set of measurements a rhodamine spectrum was recorded to determine the actual concentration of lipids, which was referenced to a spectrum taken of vesicles made by sonification without any subsequent treatment.
(§3) Fluorescence experiments were performed on a FluoroMax2 spectrofluorimeter (HORIBA Jobin Yvon, Unterhaching, Germany) equipped with a thermostated sample holder and magnetic stirrer, using an excitation wavelength of 355 nm, an emission wavelength of 508 nm, and slit widths of 5 nm. The peptide solutions were placed in elution buffer in a 1 cm standard cuvette at 30 °C. 100 s after the start of the measurement lipid vesicles were added, and the intensity of the fluorescence at 508 nm was recorded. The leakage was measured during 600 s after addition of vesicles, and the measurement was terminated after addition of Triton-X-100 (0.25% v/v), which dissolved the vesicles, and yielded 100% leakage. To determine the background signal of the vesicles themselves, several blanks were recorded per measurement set. From the leakage values of the peptides alone and of the mixture of two peptides a synergy factor SF was calculated:3 SF=L(A+B)/[L(A)+L(B)] […] Measurements were repeated three times and average values and standard deviations calculated for the leakage and the synergy factors. An average SF ≥ 2 was taken to indicate synergy.

[2] = Fluorescence ANTS/DPX vesicle leakage assay in POPE/POPG/TOCL (72:23:5); settings: POPE/POPG/TOCL (72:23:5) 100 nm vesicles, P/L ≈ 1:30, mixtures 1:1, 10 mM HEPES pH 7.5, 155 mM NaCl, 30 °C, 600 s, % of Triton-X-100 leakage, mean of n = 3
Text: It could be argued that POPC/POPG (3:1) is not the most appropriate model system to describe a bacterial membrane, which rarely contains PC lipids. We therefore also performed leakage in another lipid system, POPE/POPG/TOCL (72:23:5), which is a good model of E. coli membranes[45],[69],[70]. […] For all of the other mutants discussed below, leakage was also studied both in POPC/POPG as well as POPE/POPG/TOCL, but since the results (synergy or no synergy) were in all cases the same, the latter data will not be presented in the text. All leakage data in POPE/POPG/TOCL (72:23:5) for charge mutants are summarized in Supplementary Table S4.
as §1, §2
as §3, with “SF=L(A+B)/[L(A)+L(B)] Here, L(A) is the leakage found with peptide A alone, L(B) is the leakage found with peptide B alone, and L(A + B) is the leakage found with the mixture of peptides A and B. In all cases the P/L was the same for both peptides, alone and in the mixture, so that in the mixture the total P/L was twice that of the individual peptide measurements.” for “SF=L(A+B)/[L(A)+L(B)]”

[3] = Table S3 series (charge mutants)
[4] = Table S4 series (charge mutants)
[5] = Table S7 series (PGLa-to-MSI mutants)
[6] = Table S8 series (PGLa-to-MSI mutants)
[7] = Table S11 series (MSI-to-PGLa mutants)
[8] = Table S12 series (MSI-to-PGLa mutants)

Question: Which “Leakage synergy in combination with MAG2-E19K” value [1] does the source give for “GMASKAGAIAGKIAEVALKAL-NH2 [PGLa-K15E, PGLa charge mutant K15E]” here?
Answer: Its value is “did not show synergy”.

Question: And the “Leakage synergy in combination with MAG2-E19K-amide” value [1]?
Answer: The value was “did not show synergy”.

Question: And the “Leakage, mean value” [1, 3]?
Answer: The value was 2.9%.

Question: And the “Leakage, mean value” [2, 4]?
Answer: The value was 2.5%.

Question: Which results are given for “GMASKAGAIA IKIAKVALKAL-NH2 [PGLa-G11I, PGLa glycine mutant G11I]”?
Answer: Leakage, mean value ([1]; Table S15 series (Gly mutants)): 11.0%; Leakage, mean value ([2]; Table S16 series (Gly mutants)): 11.4%

Question: For “KIAGKIAKIAGKIAKVALKAL-NH2 [PtM-a1, PGLa to MSI-103 mutant, segment A replaced]”, which “Leakage, mean value” [1, 5] is on record?
Answer: Its value is 4.7%.

Question: What about the “Leakage, mean value” [2, 6] of the same substance?
Answer: Its value is 18.6%.

Question: Which results are given for “GMASEAGAIAGKIAKVALKAL-NH2 [PGLa-K5E, PGLa charge mutant K5E]”?
Answer: Leakage, mean value [1, 3]: 3.5%; Leakage, mean value [2, 4]: 2.2%

Question: What does the source list for “GMASKAGAIAGKIAKVALEAL-NH2 [PGLa-K19E, PGLa charge mutant K19E]”?
Answer: Leakage synergy in combination with MAG2-E19K [1]: did not show synergy; Leakage synergy in combination with MAG2-E19K-amide [1]: did not show synergy; Leakage, mean value [1, 3]: 3.0%; Leakage, mean value [2, 4]: 1.7%

Question: What does the source list for “KIAGKAGAIAGKIAKIALKIA-NH2 (also: 15N-labeled Ala10) [MtP-a4, MSI-103 mutant with MtP-A3 mutations plus G18L]”?
Answer: Leakage, mean value [1, 7]: 2.5%; Leakage, mean value [2, 8]: 2.6%

Question: With “KIAGKIGKIAGKIAKIALKIA-NH2 (also: 15N-labeled Ala10) [MtP-A7G-G18L, MSI-103 double mutant A7G, G18L]” as the substance, how does the “Leakage, mean value” [1, 7] read?
Answer: Its value is 4.9%.

Question: Which results are given for “KIAGKIAKIAGKIAKIAGKIA-NH2 [MSI-103, designer-made AMP ([KIAGKIA]3-NH2) derived from PGLa, reference compound]”?
Answer: Leakage, mean value [1, 5]: 2.0%; Leakage, mean value [2, 6]: 5.6%

Question: What does the source list for “GMASKIAKIAGKIAKVALKAL-NH2 [PtM-a3, PGLa to MSI-103 mutant, three amino acids converted]”?
Answer: Leakage, mean value [1, 5]: 3.3%; Leakage, mean value [2, 6]: 9.1%

Question: For “GMASKAIAG A IKGAKVALKAL-NH2 [PGLa-GS2, PGLa glycine-shift mutant, GxxxG on opposite helix face]”, which “Leakage, mean value” ([1]; Table S15 series (Gly mutants)) is on record?
Answer: Its value is 2.0%.

Question: What about the “Leakage, mean value” ([2]; Table S16 series (Gly mutants)) of the same substance?
Answer: The value was 2.2%.

Question: With “KIAGKIGAIAGKIAKIAGKIA-NH2 (also: 15N-labeled Ala10) [MtP-K8A-A7G, MSI-103 double mutant K8A, A7G]” as the substance, how does the “Leakage, mean value” [1, 7] read?
Answer: Its value is 1.3%.

Question: With “GIGKFLHSAKKFGKAFVGQIMNS-OH [MAG2-E19Q, MAG2 charge mutant E19Q]” as the substance, how does the “Leakage, mean value” [1, 3] read?
Answer: The value was 5.9%.

Question: What about the “Leakage, mean value” [2, 4] of the same substance?
Answer: The value was 1.1%.

Question: Which “Leakage, mean value” [1, 7] does the source give for “KIASKIGKIAGKIAKIAGKIA-NH2 (also: 15N-labeled Ala10) [MtP-G4S-A7G, MSI-103 double mutant G4S, A7G]” here?
Answer: Its value is 1.4%.

Question: For “KIAGKAGAIAGKIAKIAGKIA-NH2 [MtP-a3, MSI-103 triple mutant I6A, A7G, K8A]”, which “Leakage, mean value” [1, 7] is on record?
Answer: The value was 0.9%.

Question: And the “Leakage, mean value” [2, 8]?
Answer: The value was 0.9%.

Question: With “GIGKFLHSAKKFGKAFVGEIMNS-NH2 [MAG2-amide, MAG2 with amidated C-terminus]” as the substance, how does the “Leakage, mean value” [1, 3] read?
Answer: Its value is 3.7%.

Question: What about the “Leakage, mean value” [2, 4] of the same substance?
Answer: Its value is 0.8%.

Question: Which “Leakage, mean value” [1, 7] does the source give for “KIAGKIAAIAGKIAKIAGKIA-NH2 [MtP-K8A, MSI-103 to PGLa single mutant K8A]” here?
Answer: The value was 1.7%.

Question: What about the “Leakage, mean value” [2, 8] of the same substance?
Answer: The value was 1.8%.

Question: Which “Leakage, mean value” [1, 5] does the source give for “GMASKAAAIAGKIAKVALKAL-NH2 (also: 15N-labeled Ala10) [PtM-G7A, PGLa single mutant G7A]” here?
Answer: The value was 2.1%.

Question: What about the “Leakage, mean value” [2, 6] of the same substance?
Answer: The value was 3.7%.

Question: For “GMASKAAAIAGKIGKVALKAL-NH2 (also: 15N-labeled Ala10) [PGLa-GS1, PGLa glycine-shift mutant with GxxG motif]”, which “Leakage, mean value” ([1]; Table S15 series (Gly mutants)) is on record?
Answer: Its value is 1.9%.

Question: And the “Leakage, mean value” ([2]; Table S16 series (Gly mutants))?
Answer: Its value is 2.7%.

Question: With “GMASKAGAIAGKIAKVALKAL-NH2 [PGLa-WT, PGLa wild type antimicrobial peptide from Xenopus laevis skin, 15N-labeled at Ala10, reference compound]” as the substance, how does the “Leakage, mean value” [1, 3] read?
Answer: The value was 2.3%.

Question: What about the “Leakage, mean value” [1, 5] of the same substance?
Answer: The value was 2.7%.

Question: What about the “Leakage, mean value” [1, 7] of the same substance?
Answer: The value was 2.3%.

Question: And the “Leakage, mean value” ([1]; Table S15 series (Gly mutants))?
Answer: The value was 2.2%.

Question: And the “Leakage, mean value” [2, 4]?
Answer: Its value is 2.2%.

Question: What about the “Leakage, mean value” [2, 6] of the same substance?
Answer: Its value is 2.2%.

Question: What about the “Leakage, mean value” [2, 8] of the same substance?
Answer: Its value is 2.1%.

Question: What about the “Leakage, mean value” ([2]; Table S16 series (Gly mutants)) of the same substance?
Answer: The value was 2.3%.

Question: With “GMASKAGAIAGEIAKVALKAL-NH2 [PGLa-K12E, PGLa charge mutant K12E]” as the substance, how does the “Leakage, mean value” [1, 3] read?
Answer: The value was 3.1%.

Question: What about the “Leakage, mean value” [2, 4] of the same substance?
Answer: Its value is 2.3%.

Question: Which “Leakage, mean value” [1, 3] does the source give for “GIGKFLHSAKKFGKAFVGEIMNS-OH [MAG2-WT, magainin 2, wild type antimicrobial peptide from Xenopus laevis skin, reference compound]” here?
Answer: The value was 3.1%.

Question: What about the “Leakage, mean value” [1, 5] of the same substance?
Answer: Its value is 3.2%.

Question: And the “Leakage, mean value” [1, 7]?
Answer: The value was 3.2%.

Question: What about the “Leakage, mean value” ([1]; Table S15 series (Gly mutants)) of the same substance?
Answer: Its value is 3.2%.

Question: And the “Leakage, mean value” [2, 4]?
Answer: The value was 1.1%.

Question: And the “Leakage, mean value” [2, 6]?
Answer: Its value is 1.2%.

Question: What about the “Leakage, mean value” [2, 8] of the same substance?
Answer: Its value is 1.0%.

Question: And the “Leakage, mean value” ([2]; Table S16 series (Gly mutants))?
Answer: Its value is 1.1%.

Question: For “KIAGKAAKIAGKIAKIAGKIA-NH2 [MtP-I6A, MSI-103 to PGLa single mutant I6A]”, which “Leakage, mean value” [1, 7] is on record?
Answer: The value was 1.6%.

Question: What about the “Leakage, mean value” [2, 8] of the same substance?
Answer: The value was 4.8%.

Question: With “KIAGKAGKIAGKIAKIAGKIA-NH2 (also: 15N-labeled Ala10) [MtP-I6A-A7G, MSI-103 double mutant I6A, A7G]” as the substance, how does the “Leakage, mean value” [1, 7] read?
Answer: The value was 0.8%.
